Assay results from patent publication US20120252827A1, “COMBINATION OF THERAPY COMPRISING ZD6474 AND A TAXANE” (priority 2001, published 2012).

Tested on: GEO human colon cancer xenografts
Test: GEO human colon cancer xenograft model: ZD6474 dosed intraperitoneally
Type: in vivo, BALB/c athymic (nu+/nu+) mice
Conditions: GEO xenografts s.c. in mice; for Average time (days) from day 28 to reach an average tumour volume of 2 cm^3 (approximately 10% of mouse body weight): paclitaxel 400 μg/mouse i.p., ZD6474 100 mg/kg/day i.p.; for Average tumour volume on day 28 after tumour cell injection: treatment from day 7, paclitaxel 400 μg/mouse i.p. days 7, 14, 21, 28, ZD6474 100 mg/kg/day i.p. days 7-11, 14-18, 21-25, 28-32
Protocol: a) Geo Human Colon Cancer Xenograft Model: ZD6474 Dosed Intraperitoneally
Female BALB/c athymic (nu+/nu+) mice 4-6 weeks of age were injected subcutaneously (s.c.) with GEO human colon cancer cells (10^7 cells resuspended in 200 μl Matrigel) on day 0. Treatment was initiated on day 7 after s.c. implantation of GEO cells when the average tumour volume was 0.25 (+0.05) cm^3. 10 mice per group were treated either with intraperitoneal (i.p.) paclitaxel (400 μg/mouse) on days 7, 14, 21 and 28, or with ZD6474 (100 mg/kg/day i.p. suspended in a 1% (v/v) solution of polyoxyethylene (20) sorbitan mono-oleate in deionised water) on days 7-11, 14-18, 21-25 and 28-32, or with a combination of both agents. In the case of combination treatments, where mice received both agents on the same day, paclitaxel was given 10-15 minutes before ZD6474. Tumour size was measured using the formula π/6×larger diameter×(smaller diameter)^2.
The average tumour volume on day 28 following tumour cell injection in control mice, 1.95 (+0.15) cm^3, was approximately 10% of nude mouse body weight and mice in this group were sacrificed at this time. […] Statistical evaluations of time to reach a tumour volume of 2 cm^3 has been done using the Mantel-Cox logrank test with the following results: ZD6474 (100 mg/kg) versus control (p=0.001); paclitaxel+ZD6474 (100 mg/kg) versus control (p=0.0001); paclitaxel+ZD6474 (100 mg/kg) versus paclitaxel (p=0.001); paclitaxel+ZD6474 (100 mg/kg) versus ZD6474 (100 mg/kg) (p=0.01).

Compound | Average time (days) from day 28 to reach an average tumour volume of 2 cm^3 (approximately 10% of mouse body weight) | Average tumour volume on day 28 after tumour cell injection
CC(=O)O[C@H]1C(=O)[C@@]2(C)[C@H]([C@H](OC(=O)c3ccccc3)[C@]3(O)C[C@H](OC(=O)[C@H](O)[C@@H](NC(=O)c4ccccc4)c4ccccc4)C(C)=C1C3(C)C)[C@]1(OC(C)=O)CO[C@@H]1C[C@@H]2O [Paclitaxel, paclitaxel] | 14 (±3) days | 0.95 (±0.1) cm^3
COc1cc2c(Nc3ccc(Br)cc3F)ncnc2cc1OCC1CCN(C)CC1 [ZD6474, 4-(4-bromo-2-fluoroanilino)-6-methoxy-7-(1-methylpiperidin-4-ylmethoxy)quinazoline] | 29 (±2) days | 0.1 (±0.05) cm^3
